For orientation: melting point means the temperature, or range, at which the solid turns liquid.

From a melting point compilation (Tetko et al.; mined from patent text by program, amines drawn as free bases though some values may be those of a salt) come the findings set out here.

In turn, `Cc1cc(NC(=O)CN2CCN(c3ncccc3C#N)CC2)ccc1F` showed a melting point of 111 to 113 °C. The same measure for `Cc1cc(C)n(-c2nc(Nc3ccccn3)c3ccccc3n2)n1`: 126 to 127 °C. `NS(=O)(=O)c1ccc(C2(c3nc4cc(F)ccc4[nH]3)C=C(C(F)(F)F)NN2)cc1` (stereo not given) registered a melting point of 309 to 310 °C. For `Ic1ccc(-c2nc3ccccc3n2-c2ccccc2)cc1` the value was 178 to 181 °C; for `CCCCc1nnc2ccccc2c1Cc1ccc(-c2ccccc2C(=O)O)cc1`, 210 °C; for `COC(=O)CC1CCc2cc(O)ccc2C1=O` (stereo not given), 121 to 123 °C.

`Cn1c(-c2ccc(OC3CCN(C4CCC4)CC3)cc2)nc2cccnc2c1=O` gave a melting point of 182 to 183 °C. For `COC(=O)c1ccc2c(c1)C(SCCO)c1ccccc1CC2` (stereo not given) the value was 107 to 109 °C; for `OC1CCc2cccc(Nc3cc(-c4ccc(C(F)(F)F)cc4)ncn3)c2C1` (stereo not given), 178 to 179 °C. In the case of `COC(=O)N(C)c1cccc(-c2ccc3nncn3n2)c1`, the melting point lay in the range of 195 to 199 °C. The same measure for `O=C(Nc1c(F)cccc1Cl)c1ccc(-n2nc(C(F)(F)F)cc2C2CC2)c(F)c1`: 148 to 152 °C; for `CC(=O)OC1CC(C)(C)N(OC(C)=O)C(C)(C)C1`: 72 to 73 °C; for `COC(=O)/C=C/n1cnc2ccc(OC(C)C)cc2c1=O`: 156 to 158 °C. For `O=C(CC1CCCCCC1)c1cn(CCO)c2cccc(Cl)c12` the value was 113 to 119 °C; for `Cc1ccc2c(NCc3ccc(NC(=O)c4ccc(F)cc4)cc3)nc(NCCc3ccccn3)nc2c1`, 112 to 115 °C.

The compound `O=CC=NNc1c(Cl)cc(C(F)(F)F)cc1Cl` showed a melting point of 131 to 133 °C.

Consider `CCS(=O)(=O)c1ccc(F)c(C#Cc2cc(Cl)ccc2OCC(=O)O)c1`, for which the melting point was in the range of 165 to 169 °C. For `CC1=C(C(=O)OCCC#N)C(c2ccccc2Cl)C(c2nnco2)=C(C)N1` (stereo not given) the value was 180 to 182 °C. For `O=c1[nH]c2ccccc2cc1CN1CC=C(/C=C/c2ccccc2)CC1` the value was 258 to 260 °C; for `CCc1cc(C(C)=O)c(O)cc1OCCCCCN`, 75 to 76 °C; for `Cc1ccccc1C(=O)CCc1c(C(=O)N2CCCC2)cc2c(nc(C)n2C)c1O`, 216 to 217 °C. As to `COc1cc2cc(-c3ccc4c(c3)OCO4)nc(C)c2cc1OC`, the melting point is 174 °C. For `CC(c1ccccc1)c1cc(C(=O)O)c(O)c(C(C)c2ccccc2)c1` (stereo not given) the value was 147 to 150 °C; for `Cc1ccsc1C(=O)c1cccn1N1C(=O)c2ccccc2C1=O`, 221 to 223 °C; for `Brc1ccc(-c2ccc(-c3ccc(Br)o3)cc2)o1`, 155 to 157 °C. The same measure for `ClCCCOc1ccc(-c2nccs2)cc1`: 72 to 75 °C; for `COC(=O)[C@@H]1[C@H](C(C)C)N1S(=O)(=O)c1ccc(C)cc1` (stereo not given in full): 52 to 54 °C. For `C=CC[C@@H](C(=O)N[C@H](C(=O)OCc1ccccc1)C(C)(C)C)[C@@H]1OC(C)(C)OC1=O` the value was 67 to 70 °C; for `O=S(=O)(Nc1ccc(Cl)nc1I)c1ccc2ncsc2c1`, 191 °C. Consider `CN1CCN(c2cc(C(=O)Nc3ccc4c(c3)-c3c(c(C(N)=O)nn3-c3ccc(F)cc3)CC4)ccn2)CC1`, for which the melting point fell in the range of 277 to 279 °C. For `Cc1c(CNCC(C)(C)C)n(C)c2ccc(NC(=O)c3ccc(OC[C@@H]4CCCO4)cc3)cc12` the value was 165 to 166 °C; for `CC(=O)Oc1ccc2c(=O)c(C#N)c(C)oc2c1`, 140 to 141 °C. The same measure for `CCc1nc(NC(=O)NS(=O)(=O)c2ccccc2OC(F)F)nc(OC)n1`: 114 to 116 °C. The same measure for `Cc1ccc2c(=O)c(O)cn(C)c2c1`: 268 °C; for `C#CCOC(=O)c1ccc(O)c(Cl)c1`: 144 to 145 °C; for `CCCCOC1OC(CO)C(O)(N(CC)C(=O)N(CCCl)N=O)C(O)C1O` (stereo not given): 75 to 77 °C. For the compound `O=C(O)[C@H](Cc1ccc(C(F)(F)F)o1)[C@@H](O)c1ccc(F)cc1` (racemic), the melting point was in the range of 86 to 87 °C.

As to `CC(C)(C)OC(=O)N1CCc2c(n(CCOc3ccccc3)c3ccc(Cl)c(Cl)c23)CC1`, the melting point was in the range of 175 to 176 °C.

In turn, `CCC(C)N(C)C(=O)c1cc2sccc2c(-c2ccccc2)n1` (stereo not given) showed a melting point of 104 °C. The same measure for `CCOC(=O)/C=C/c1ccc(-c2ccc(O)c(C34CC5CC(CC(C5)C3)C4)c2)c(C)c1`: 193 to 195 °C; for `Cc1ccc2c(c1)CC(=S)N2C`: 143 to 145 °C; for `CS(=O)(=O)c1ccc(C(=O)Nc2ccc(Cl)c(-c3ncc(C(=O)NO)cn3)c2)c(Cl)c1`: 170 to 172 °C. Take `CCN(CC)C1CCN(c2cccc(-c3cnn4c(N)c(-c5cccc(Cl)c5)c(C)nc34)c2)CC1`: the melting point was in the range of 163 to 168 °C. The same measure for `OC1CCSC(=S)N1c1ccccn1` (stereo not given): 120 °C; for `Cc1cccc(C)c1OC(=O)c1ccccc1C(=O)Oc1c(C)cccc1C`: 174 to 176 °C; for `CN(C)CCCOc1ccc(-c2nnc(CSCCOc3ccccc3)o2)cc1`: 70 °C. For `CC(=Cc1c(Cl)cccc1Cl)[N+](=O)[O-]`, the melting point was in the range of 49 to 50 °C. For `O=C(O)CC(=O)N1CCSCC1` the value was 119 to 120 °C; for `COc1c(Cl)ccc(-c2cc(N)c(Cl)c(C(=O)NOCc3ccoc3)n2)c1F`, 160 to 162 °C.

In turn, `O=C(O)c1cc2cc3c(cc2oc1=O)OCO3` yielded a melting point of 279 to 280 °C. Regarding `CCNC(=NC#N)NCC(=O)N(C)c1ccc(Cl)c(COc2cccn3c(Br)c(C)nc23)c1Cl`, the melting point was > 250 °C. The same measure for `CN1Cc2ccccc2C(=O)c2cc(CC(=O)O)cc(Cl)c21`: 168 to 170 °C; for `COc1cc(C(=O)O)ccc1OCCCO`: 162 °C; for `CCC(C)(C)C(O)(C#Cc1cccnc1)c1cncnc1` (stereo not given): 170 to 172 °C. The same measure for `Nc1ccc2c3c(cccc13)CC2`: 178 to 179 °C; for `CCCCCCCCCOC1C(O)C(CO)OC1n1cnc2c(=O)[nH]c(N)nc21` (stereo not given): 258 to 259 °C. The same measure for `c1cnc(N2CCN(Cc3ccc4ccccc4c3)CC2)nc1`: 109 to 110 °C; for `Cc1cc(C)cc(OCC(=O)c2ccccc2Br)c1`: 74 °C; for `CC(C)Sc1nc(-n2ccnc2)c(I)c(C(F)(F)F)n1`: 118 to 120 °C. Compound `C=CCC(CO)(NC)c1ccc(Cl)c(Cl)c1` (stereo not given) showed a melting point of 78 to 78.5 °C. `OCC1OC(n2cnc3c(Nc4ccccc4)ncnc32)CC1F` (stereo not given) returned a melting point of 83 °C.

`Cc1nc2c(C)nn(C)c2c(=O)[nH]1` returned a melting point of 258 to 260 °C. For `CCCCNS(=O)(=O)C[C@@H](O)C(O)[C@@H](CC1CCCCC1)NC(=O)[C@H](CC(C)C)NC(=O)OCc1ccccc1` (relative stereo) the value was 50 to 70 °C. For `Clc1ccc(C(c2ccc(Cl)cc2)(c2nc[nH]n2)n2ccnc2)cc1` the value was 188 to 191 °C; for `CC1(C)NC(=O)N(c2ccc([N+](=O)[O-])cc2)C1=O`, 176 to 177 °C.
